Numbered stars: 1 amine (or outer) side, 2 acyl side, 3 side chain; on linkers, the order of the positions; unused ones are H or OH. Bridge positions count the residues as written; N and C are the ends. Square brackets hold non-standard residues; d marks the D form. Peptide text beside a SMILES is read from it. I, II: the chains in the order shown. Actinocin(9to1) = Cc1c2oc3c(C)ccc(C(=O)[*:1])c3nc-2c(C(=O)[*:2])c(N)c1=O; NMeV = CN[C@H](C(=O)O)C(C)C; Sar = CNCC(=O)O
Legend:
Nrp2-b1b2 = target: T1, Nrp2-b1b2 (Homo sapiens, UniProt O60462); details: cited from earlier work
T1 sequence (O60462 276-595 limits assumed): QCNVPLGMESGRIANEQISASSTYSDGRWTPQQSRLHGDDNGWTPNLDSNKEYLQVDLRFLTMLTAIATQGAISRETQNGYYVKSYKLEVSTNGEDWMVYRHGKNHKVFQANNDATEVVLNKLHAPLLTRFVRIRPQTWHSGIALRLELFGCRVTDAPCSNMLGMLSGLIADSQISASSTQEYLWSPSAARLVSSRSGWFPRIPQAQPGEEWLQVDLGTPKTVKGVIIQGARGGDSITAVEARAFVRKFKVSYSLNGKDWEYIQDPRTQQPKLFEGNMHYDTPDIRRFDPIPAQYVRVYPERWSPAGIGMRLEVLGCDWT

PD-L1 mRNA in PC3 = assay: PD-L1 mRNA by qPCR in PC3 cells treated with YAP inhibitor; assay type: cell-based, human; details: Verteporfin 2 μM for 24 hours versus DMSO
Protocol: (D) Bar graphs show fold change of PD-L1/18S mRNA in PC3 treated with DMSO versus PC3 treated with YAP inhibitor (Verteporfin) from 3 independent experiments determined by qPCR.
The following reagents were used: CellTrace™ Violet Cell Proliferation Kit (Thermo Fisher, C34571), eBioscience™ Fixable Viability Dye eFluor™ 780 (Invitrogen, 65-0865-14). Verteporfin was purchased from Tocris and used at a concentration of 2 μM for 24 hours.
Real-time qPCR. RNA extraction was accomplished using an RNA isolation kit (BS88133, Bio Basic Inc.), and cDNAs were produced using a qScript cDNA syn-thesis kit (#95047, Quantabio). SYBR Green (Applied Biosystems) was used as the qPCR master mix. Experiments were performed in triplicate and normalized to 18S. qPCR primer sequences were obtained from the Massachusetts General Hospital/Harvard Medical School PrimerBank (pga.mgh. harvard.edu/primerbank/).

Oc1cc2c(cc1O)[C@H]1c3ccccc3CN[C@@H]1CC2 (racemic) [Dihydrexidine]
AP-VEGF-C/Nrp2-b1b2 binding (Nrp2-b1b2): inhibit

Cc1c2oc3c(C)ccc(C(=O)N[C@@H]4C(=O)N[C@H](C(C)C)C(=O)N5CCC[C@H]5C(=O)N(C)CC(=O)N(C)[C@@H](C(C)C)C(=O)O[C@@H]4C)c3nc-2c(C(=O)N[C@@H]2C(=O)N[C@H](C(C)C)C(=O)N3CCC[C@H]3C(=O)N(C)CC(=O)N(C)[C@@H](C(C)C)C(=O)O[C@@H]2C)c(N)c1=O [Actinomycin D] (I: T[dV]P[Sar][NMeV] / II: T[dV]P[Sar][NMeV]; ester I:1-I:C, II:1-II:C; linker I:N-II:N via Actinocin(9to1))
AP-VEGF-C/Nrp2-b1b2 binding (Nrp2-b1b2): inhibit

COc1cc(C(=O)NS(=O)(=O)c2ccccc2C)ccc1Cc1cn(C)c2ccc(NC(=O)OC3CCCC3)cc12 [Zafirlukast]
AP-VEGF-C/Nrp2-b1b2 binding (Nrp2-b1b2): inhibit

Verteporfin
PD-L1 mRNA level (PD-L1/18S) (PD-L1 mRNA in PC3): significantly reduced

Reference: patent US20250179502A1, “TARGETING NEUROPILIN 2 (NRP2) IN LETHAL PROSTATE CANCER” (UNIVERSITY OF MASSACHUSETTS, priority 2022, published 2025)
